Source: ChEMBL document CHEMBL4651402, “Screening of ~5500 FDA-approved drugs and clinical candidates for anti-SARS-CoV-2 activity” (2021)
pIC50: −log10 of the molar value.

System: SARS-CoV-2
Assay: microbe, parasite or virus in culture
Settings: Severe acute respiratory syndrome coronavirus 2, Vero C1008, 48 h; for IC50: read-out: pIC50 (converted)

Molecule | pIC50 | IC50 [µM]
CCC(C)C(=O)OC1CC2(C)C(c3ccoc3)OC(=O)CC23OC2(C)OC34C(OC(=O)C(C)C)C3(O)C(OC(=O)C5(C)OC5C)C5(C)CC3(O)C(C)(C5CC(=O)OC)C14O2 (stereo not drawn) | < 4.70 | > 20
O[C@H]1[C@H](O)[C@@H](O)O[C@H]2COC(c3ccccc3)O[C@H]12 (stereo partly drawn) | < 4.70 | > 20
CN1[C@@H](CC(=O)c2ccccc2)CCC[C@H]1C[C@H](O)c1ccccc1 [LOBELINE] | < 4.70 | > 20
CC(=O)N[C@@H](C=O)[C@@H](O)[C@H](O)[C@H](O)CO | < 4.70 | > 20
NC(Cc1ccc(O)cc1)C(=O)O (stereo not drawn) | < 4.70 | > 20
CN(C)Cc1ccc(S(=O)(=O)n2ccc(/C=C/C(=O)NO)c2)cc1 [RESMINOSTAT] | < 4.70 | > 20
CC(=O)N1CCN(c2ccc(OC[C@@H]3CO[C@](Cn4ccnc4)(c4ccc(Cl)cc4Cl)O3)cc2)CC1 | < 4.70 | > 20
COc1cc2c(cc1OC)[C@@]13CCN4CC5=CCO[C@H]6CC(=O)N2[C@H]1[C@H]6[C@H]5C[C@H]43 [BRUCINE] | < 4.70 | > 20
CCCOCCn1c(=O)c(N2CCN(CCO)CC2)nc2cnc(-c3ccc(OC)nc3)cc21 [PF-03049423] | < 4.70 | > 20
CCOCN1C2=C(C(=O)Nc3ccccc3F)C(=O)CCN2c2ccc(F)cc21 | < 4.70 | > 20
CCN(CC)CCNC(=O)c1ccc(N)cc1 [PROCAINAMIDE] | < 4.70 | > 20
COCC(=O)Nc1cc(COc2ccc(NC(=O)Nc3cc(C(C)(C)C)nn3-c3ccc(C)cc3)c3ccccc23)ccn1 [JNJ-49095397] | < 4.70 | > 20
Cc1cc(-n2c(=O)[nH]c(=O)n(C)c2=O)ccc1Oc1ccc(SC(F)(F)F)cc1 [TOLTRAZURIL] | < 4.70 | > 20
COc1ccc(-c2cc(=O)c3c(O)cc(O[C@@H]4O[C@H](CO[C@H]5O[C@H](C)[C@@H](O)[C@H](O)[C@@H]5O)[C@@H](O)[C@H](O)[C@H]4O)cc3o2)cc1O | < 4.70 | > 20
C=CC1CN2CCC1CC2C(O)c1ccnc2ccccc12 (stereo not drawn) | < 4.70 | > 20
O=c1c(-c2ccc(O)cc2)coc2cc(O)ccc12 [DAIDZEIN] | < 4.70 | > 20
O=S(=O)(c1ccccc1)c1cnc2c(N3CCNCC3)cccc2c1 [INTEPIRDINE] | < 4.70 | > 20
CC(=O)OCC(=O)[C@@]1(O)CCC2C3CCC4=CC(=O)CCC4(C)C3C(O)CC21C (stereo partly drawn) | < 4.70 | > 20
O=c1[nH]cc(F)c(=O)[nH]1 [FLUOROURACIL] | < 4.70 | > 20
CN(C)CCOCC(=O)NC12CC3CC(CC(C3)C1)C2 | < 4.70 | > 20
CN(C)C(=O)CCn1nc(Nc2ccc3c(c2)OC(F)(F)O3)nc1-c1ccncc1 [JNJ-39393406] | < 4.70 | > 20
N=C(N)c1ccc(C(=O)N[C@@H](Cc2ccc(O)cc2)C(=O)N2CCC(OCC(=O)O)CC2)cc1 [LAMIFIBAN] | < 4.70 | > 20
C[C@H](O)C(=O)C1=Nc2c(nc(N)[nH]c2=O)NC1 [SEPIAPTERIN] | < 4.70 | > 20
O=C(Cn1ccnc1[N+](=O)[O-])NCCO [ETANIDAZOLE] | < 4.70 | > 20
CC(C)COCC(CN(Cc1ccccc1)c1ccccc1)N1CCCC1 (stereo not drawn) [BEPRIDIL] | < 4.70 | > 20

Molecule | pIC50 | IC50 [µM]
C#C[C@]1(O)CCC2C3CCC4=CC(=O)CCC4C3CCC21CC (stereo partly drawn) | < 4.70 | > 20
O=C(CN1C(=O)C2(CCCC2)NC[C@H]1c1cc(F)cc(F)c1)Nc1ccc2c(c1)C[C@@]1(C2)C(=O)Nc2ncccc21 [MK3207] | < 4.70 | > 20
CC(C)NCCCC1(C(N)=O)c2ccccc2-c2ccccc21 [INDECAINIDE] | < 4.70 | > 20
CC#C[C@]1(O)CC[C@H]2[C@@H]3CCC4=CC(=O)CCC4=C3[C@@H](c3ccc(N(C)C)cc3)C[C@@]21C [MIFEPRISTONE] | < 4.60 | > 25.1
O=C(O)[C@@H]1[C@H]2C[C@H]3c4[nH]c5ccccc5c4CCN3C[C@@H]2CC[C@@H]1O [YOHIMBIC ACID] | < 4.70 | > 20
CCN1CCN=C1CNC(=O)c1cc(Cl)c(N)cc1OC [LINTOPRIDE] | < 4.70 | > 20
Cc1cc(S(N)(=O)=O)ccc1NC(=O)COc1ccc(Cl)cc1C(=O)c1cc(Cl)cc(C#N)c1 | < 4.70 | > 20
CCCCC(C)(O)C/C=C/C1C(O)CC(=O)C1CC/C=C/CCC(=O)OC (stereo not drawn) | < 4.70 | > 20
COc1ccc(C2CNC(=O)C2)cc1OCCCN1CCC(C(=O)c2ccc(F)cc2)CC1 (stereo not drawn) [LIDANSERIN] | < 4.70 | > 20
CC(C)[C@H](N)C(=O)O[C@@H]1[C@@H](CO)O[C@@H](n2ccc(N)nc2=O)[C@]1(C)O [VALOPICITABINE] | < 4.70 | > 20
Cc1cc(=O)oc2c(O)c(O)ccc12 [4-METHYLDAPHNETIN] | < 4.70 | > 20
C=CCn1c(=O)c2cnc(Nc3ccc(N4CCN(C)CC4)cc3)nc2n1-c1cccc(C(C)(C)O)n1 [ADAVOSERTIB] | < 4.70 | > 20
c1ccc(C(CC2=NCCN2)c2ccccn2)cc1 (stereo not drawn) [MIDAGLIZOLE] | < 4.70 | > 20
Cc1nc(C)c(C)nc1C [LIGUSTRAZINE] | < 4.70 | > 20
COc1cc(C(=O)NS(=O)(=O)c2ccccc2C)ccc1Cc1cn(C)c2ccc(NC(=O)OC3CCCC3)cc12 [ZAFIRLUKAST] | < 4.70 | > 20
CCOC(=O)OC(C)OC(=O)[C@@H]1N2C(=O)[C@@H](NC(=O)[C@H](N)c3ccccc3)[C@H]2SC1(C)C (stereo partly drawn) [BACAMPICILLIN] | < 4.70 | > 20
CCN(CC)C(=O)c1cccc(C)c1 [DIETHYLTOLUAMIDE] | < 4.70 | > 20
N[C@@H](CC(=O)N1CCn2c(nnc2C(F)(F)F)C1)Cc1cc(F)c(F)cc1F [SITAGLIPTIN] | < 4.70 | > 20
Nc1nc(Cl)nc2c1ncn2[C@@H]1C[C@H](O)[C@@H](CO)O1 | < 4.70 | > 20
O=P(O)(O)OC[C@H]1OC(O)[C@H](O)[C@@H](O)[C@@H]1O (stereo partly drawn) | < 4.70 | > 20
O=C(/N=C(/Nc1cc(F)cc(Cl)c1)Nc1cc(C(F)(F)F)[nH]n1)c1cccc(Cl)c1 | < 4.70 | > 20
COc1cc2nccc(Oc3ccc(NC(=O)c4cn(C(C)C)c(=O)n(-c5ccc(F)cc5)c4=O)cc3F)c2cc1OC | < 4.70 | > 20
NS(=O)(=O)c1ccc(C(=O)O)cc1 [CARZENIDE] | < 4.70 | > 20
O=[N+]([O-])OCC(CO[N+](=O)[O-])O[N+](=O)[O-] [NITROGLYCERIN] | < 4.70 | > 20
C1CCN2CC3CC(CN4CCCCC34)C2C1 (stereo not drawn) | < 4.70 | > 20

Molecule | pIC50 | IC50 [µM]
N=C(N)N1CCc2ccccc2C1 [DEBRISOQUIN] | < 4.70 | > 20
C[C@@H](CN1CCOCC1)C(C(=O)N1CCCC1)(c1ccccc1)c1ccccc1 [LEVOMORAMIDE] | < 4.70 | > 20
CCN(CC)CCOCCOC(=O)C1(c2ccccc2)CCCC1 [CARBETAPENTANE] | < 4.70 | > 20
CNC1=Nc2ccc(Cl)cc2C(c2ccccc2)=[N+]([O-])C1 [CHLORDIAZEPOXIDE] | < 4.70 | > 20
COc1ccc(CN(C(=O)[C@@H](N)Cc2c(C)cc(C(N)=O)cc2C)[C@H](C)c2nc(-c3ccccc3)c[nH]2)cc1C(=O)O | < 4.70 | > 20
CCCCCCCCCCCC[N+](C)(C)CCOc1ccccc1 [DOMIPHEN] | < 4.70 | > 20
CCNC(=O)NCCCOc1cccc(CN2CCCCC2)c1 [DALCOTIDINE] | < 4.70 | > 20
O=c1[nH]cnc2nc[nH]c12 [HYPOXANTHINE] | < 4.70 | > 20
CC(C)c1nc(N(C)S(C)(=O)=O)nc(-c2ccc(F)cc2)c1/C=C/C(O)CC(O)CC(=O)O (stereo not drawn) | < 4.70 | > 20
CN1C(=O)CC(=O)N(c2ccccc2)c2cc(C(F)(F)F)ccc21 [TRIFLUBAZAM] | < 4.70 | > 20
CC(C)NCC(O)COc1ccc(CC(N)=O)cc1 (racemic) [ATENOLOL] | < 4.70 | > 20
O=C(O)c1cc(-c2ccccc2)nc2ccccc12 [CINCHOPHEN] | < 4.70 | > 20
C=CC(=O)N(C)CCOc1c(N)ncnc1-c1cc(F)cc(NC(=O)c2ccc(C3CC3)cc2F)c1C [REMIBRUTINIB] | < 4.70 | > 20
CCn1ccnc1CC1COc2ccccc2O1 (stereo not drawn) [IMILOXAN] | < 4.70 | > 20
CC(N)Cc1ccc(O)cc1 (stereo not drawn) [HYDROXYAMPHETAMINE] | < 4.70 | > 20
CN1CCC(=C2c3ccccc3CC(=O)c3sccc32)CC1 [KETOTIFEN] | < 4.70 | > 20
enfuvirtide | < 4.70 | > 20
C[C@@H](NCCCCc1ccccc1)[C@@H](O)c1ccc2c(c1)CCS2 | < 4.70 | > 20
NS(=O)(=O)OC[C@@H]1C[C@@H](n2ccc3c(N[C@H]4CCc5ccccc54)ncnc32)C[C@@H]1O [PEVONEDISTAT] | < 4.70 | > 20
O=C(Cn1ccnc1)c1ccc2ccccc2c1 [NAFIMIDONE] | < 4.70 | > 20
CC(=O)OCC(=O)[C@@]1(O)CCC2C3C[C@H](C)C4=CC(=O)C=CC4(C)C3C(O)CC21C (stereo partly drawn) | < 4.70 | > 20
O=C(NC(CO)C(O)c1ccc([N+](=O)[O-])cc1)C(Cl)Cl (stereo not drawn) | < 4.70 | > 20
CC1(C)OC2CC3C4CCC5=CC(=O)C=CC5(C)C4C(O)CC3(C)[C@]2(C(=O)CO)O1 (stereo partly drawn) | < 4.70 | > 20
COc1ccc2c(c1O)-c1c(OC)c(OC)cc3c1[C@H](C2)N(C)CC3 [ISOCORYDINE] | < 4.70 | > 20
